Columns and labels:
DmGSTE1 [1] = target: T1, DmGSTE1 (Drosophila melanogaster, UniProt Q7KK90); assay: X-ray crystal structure, […] Å; type: binding; conditions: G site; mixture with reduced glutathione at equal occupancies; sulfoxide H-bonds Ser14
T1 construct: gene GstE1; recombinant, codon-optimized gene in pET28a (NdeI/SacI), E. coli; homodimer; residues Ser2-Asp223 described in the structure
T1 sequence (Q7KK90 1-224): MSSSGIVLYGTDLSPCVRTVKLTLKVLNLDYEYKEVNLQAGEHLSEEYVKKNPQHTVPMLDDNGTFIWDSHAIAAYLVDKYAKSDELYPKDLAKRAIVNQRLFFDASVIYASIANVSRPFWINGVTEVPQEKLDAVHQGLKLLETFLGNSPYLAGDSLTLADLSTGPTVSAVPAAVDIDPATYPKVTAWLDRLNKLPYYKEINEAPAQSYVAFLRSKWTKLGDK

DmGSTE1 [2] = target: T1, DmGSTE1; assay: spectrophotometric CDNB conjugation, […] nm, Michaelis-Menten fit; type: biochemical; conditions: 2 mM GSH; 100 mM sodium phosphate pH 6.5; 25 °C; 50 nM enzyme
[3] = target: the molecule itself; assay: crystal structure; sitting-drop vapour diffusion at 4 °C; 15 mg/mL DmGSTE1 in 20 mM Tris-HCl pH 7.4; 20% w/v PEG 8000, 100 mM MES pH 6.0, 200 mM Ca acetate; space group P212121, one dimer in the asymmetric unit; glutathione bound

## N[C@@H](CCC(=O)N[C@@H](CSO)C(=O)NCC(=O)O)C(=O)O [GS8]
DmGSTE1 [1]
  X-ray crystal structure, 1.80 Å: occupied by a mixture of glutathione and glutathione sulfoxide refined with equal occupancies

## O=[N+]([O-])c1ccc(Cl)c([N+](=O)[O-])c1 [CDNB, 1-chloro-2,4-dinitrobenzene]
DmGSTE1 [2]
  Km: 15 ± 4 µM

B1: Drosophila melanogaster GSTE1 (enzyme)
chain: MSSSGIVLYGTDLSPCVRTVKLTLKVLNLDYEYKEVNLQAGEHLSEEYVKKNPQHTVPMLDDNGTFIWDSHAIAAYLVDKYAKSDELYPKDLAKRAIVNQRLFFDASVIYASIANVSRPFWINGVTEVPQEKLDAVHQGLKLLETFLGNSPYLAGDSLTLADLSTGPTVSAVPAAVDIDPATYPKVTAWLDRLNKLPYYKEINEAPAQSYVAFLRSKWTKLGDK
notes: Glutathione S-transferase E1 (Epsilon class), Drosophila melanogaster; the crystal model is described as Ser2-Tyr88 (N-terminal thioredoxin domain) and Pro89-Asp223 (C-terminal domain); Cloned in pET28a between NdeI and SacI; Crystallised with glutathione / glutathione sulfoxide in the G site; also called DmGSTE1; source: E. coli, purified (GSTrap Fast Flow, eluted with 10 mM reduced glutathione, …)
[3]
  stoichiometry N: 2
